Test results from the supplement of paper PMC10307832.

What was measured:
Assay in all cases: relative viability (nuclei count vs DMSO), 5 days (fraction); higher = more cells survive
[1] = compound: CCC1=CN=CN=C1N2CCN(CC2)CC3=NC4=C(N3)C=C(C=C4)C(F)(F)F + Cc1nc(Nc2ncc(C(=O)Nc3c(C)cccc3Cl)s2)cc(N2CCN(CCO)CC2)n1 [Dasatinib] (partner 0.075 µM)
Outline: (§1)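 For relative viability, nuclei counts in treated wells were divided by those in vehicle wells. Lung cancer cell lines had been pin-tool dosed in 1536-well plates the day after seeding and cultured for 5 days, then fixed and stained in one step (final 0.05% Triton X-100, 1% formaldehyde, 1 ug/ml Hoechst) and imaged at 4×. Doses were one drug alone or a fixed anchor-drug dose plus five library-drug doses (not always all listed) in √10 steps, and values are duplicate-plate medians.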

[2] = compound: CCn1c(-c2nonc2N)nc2cnc(Oc3cccc(NC(=O)c4ccc(OCCN5CCOCC5)cc4)c3)cc21 + CS(=O)(=O)N1CCN(Cc2cc3nc(-c4cccc5[nH]ncc45)nc(N4CCOCC4)c3s2)CC1 [Pictilisib] (partner 1 µM)
Outline: as §1

[3] = compound: N=C1NC(=O)/C(=C/c2ccc(O)cc2)S1 [Mirin] + CS(=O)(=O)CCNCc1ccc(-c2ccc3ncnc(Nc4ccc(OCc5cccc(F)c5)c(Cl)c4)c3c2)o1 [Lapatinib] (partner 2 µM)
Outline: as §1

[4] = compound: N=C1NC(=O)/C(=C/c2ccc(O)cc2)S1 [Mirin] + CCNC(=O)c1noc(-c2cc(C(C)C)c(O)cc2O)c1-c1ccc(CN2CCOCC2)cc1 [Luminespib] (partner 0.01 µM)
Outline: as §1

Row | Cell Line | relative viability ([1]; first compound 0.04 µM) | relative viability ([1]; first compound 0.1265 µM) | relative viability ([1]; first compound 0.4 µM) | relative viability ([1]; first compound 1.265 µM) | relative viability ([1]; first compound 4 µM) | relative viability ([2]; first compound 0.04 µM) | relative viability ([2]; first compound 0.1265 µM) | relative viability ([2]; first compound 0.4 µM) | relative viability ([2]; first compound 1.265 µM) | relative viability ([2]; first compound 4 µM) | relative viability ([3]; first compound 0.25 µM) | relative viability ([3]; first compound 0.7906 µM) | relative viability ([3]; first compound 2.5 µM) | relative viability ([3]; first compound 7.906 µM) | relative viability ([3]; first compound 25 µM) | relative viability ([4]; first compound 0.25 µM) | relative viability ([4]; first compound 0.7906 µM) | relative viability ([4]; first compound 2.5 µM) | relative viability ([4]; first compound 7.906 µM) | relative viability ([4]; first compound 25 µM)
1 | NCI-H358 | 0.234 | 0.147 | 0.179 | 0.14 | 0.172 | 0.339 | 0.401 | 0.316 | 0.384 | 0.216 | 0.466 | 0.514 | 0.489 | 0.52 | 0.379 | 0.562 | 0.408 | 0.502 | 0.36 | 0.413
2 | BEN | 0.241 | 0.261 | 0.303 | 0.335 | 0.288 | 0.574 | 0.501 | 0.43 | 0.285 | 0.318 | 0.507 | 0.942 | 0.721 | 0.656 | 0.457 | 0.484 | 0.593 | 0.503 | 0.315 | 0.217
3 | SK-MES-1 | 0.342 | 0.376 | 0.416 | 0.319 | 0.493 | 0.365 | 0.355 | 0.386 | 0.422 | 0.323 | 0.461 | 0.469 | 0.544 | 0.53 | 0.624 | 0.869 | 0.915 | 0.88 | 0.919 | 0.7
4 | NCI-H1755 | 0.427 | 0.396 | 0.416 | 0.375 | 0.381 | 0.484 | 0.391 | 0.327 | 0.331 | 0.3 | 1.03 | 0.951 | 1.05 | 1.11 | 1.18 | 0.396 | 0.519 | 0.497 | 0.407 | 0.358
5 | NCI-H2023 | 0.641 | 0.546 | 0.529 | 0.488 | 0.582 | 0.315 | 0.293 | 0.199 | 0.231 | 0.221 | 1.08 | 0.301 | 0.752 | 0.876 | 0.585 | 0.746 | 0.862 | 0.804 | 0.763 | 0.64
6 | LC-2-ad | 0.489 | 0.542 | 0.508 | 0.507 | 0.484 | 0.683 | 0.729 | 0.372 | 0.451 | 0.386 | 0.967 | 1.03 | 0.947 | 0.783 | 0.98 | 1.02 | 0.837 | 1.05 | 0.968 | 0.721
7 | NCI-H1666 | 0.777 | 0.685 | 0.742 | 0.783 | 0.865 | 0.527 | 0.409 | 0.499 | 0.329 | 0.246 | 0.683 | 0.381 | 0.638 | 0.444 | 0.443 | 1.03 | 1.13 | 1.01 | 0.936 | 0.949
8 | 201T | 0.527 | 0.565 | 0.559 | 0.568 | 0.541 | 0.732 | 0.67 | 0.586 | 0.631 | 0.743 | 0.98 | 0.964 | 1.01 | 1.09 | 1.08 | 1.05 | 1.11 | 1.08 | 1.09 | 1.14
9 | NCI-H2009 | 0.269 | 0.309 | 0.298 | 0.249 | 0.275 | 0.971 | 0.774 | 0.629 | 0.461 | 0.348 | 0.883 | 0.469 | 1.02 | 0.847 | 0.993 | 0.983 | 1.15 | 1.02 | 0.925 | 1.07
10 | NCI-H1395 | 0.441 | 0.405 | 0.371 | 0.442 | 0.384 | 0.795 | 0.508 | 0.491 | 0.384 | 0.536 | 0.947 | – | 1.08 | 0.934 | 0.853 | 0.687 | 0.449 | 0.662 | 0.649 | 0.622
11 | NCI-H23 | 0.794 | 0.897 | 0.653 | 0.769 | 0.865 | 0.721 | 0.613 | – | 0.433 | 0.343 | 1.17 | – | 1.13 | 0.936 | 0.742 | 0.21 | 0.186 | 0.2 | 0.234 | 0.186
12 | LU99A | 0.718 | 0.511 | 0.458 | 0.602 | 0.7 | 0.392 | 0.322 | 0.192 | 0.317 | 0.214 | 1.05 | 0.79 | 0.888 | 0.809 | 0.749 | 0.199 | 0.207 | 0.225 | 0.209 | 0.211
13 | NCI-H1437 | 0.339 | 0.369 | 0.386 | 0.328 | 0.22 | 0.383 | 0.39 | 0.257 | 0.443 | 0.283 | 0.912 | 0.741 | 0.776 | 0.762 | 0.394 | 1.13 | 1.11 | 1.08 | 1.09 | 1.11
14 | EKVX | 0.558 | 0.484 | 0.527 | 0.491 | 0.415 | 0.46 | 0.505 | 0.491 | 0.406 | 0.481 | 0.213 | 0.192 | 0.23 | 0.215 | 0.256 | 0.868 | 0.754 | 0.907 | 0.74 | 0.886
15 | ABC-1 | 0.66 | 0.507 | 0.614 | 0.495 | 0.449 | 1.34 | 0.599 | 0.494 | 0.442 | 0.401 | 1.04 | 1.33 | 1.17 | 1.16 | 0.95 | 0.746 | 0.879 | 0.73 | 0.534 | 0.341
16 | NCI-H596 | 0.679 | 0.608 | 0.555 | – | 0.668 | 0.399 | 0.416 | 0.37 | 0.359 | 0.389 | 1.1 | 1.07 | 1.04 | 1.1 | 0.983 | 0.931 | 0.984 | 1.06 | 0.955 | 0.905
